Common to all, as to assay type: in vivo
The subject of assay [1] is MC38 tumor cells. To be noted: interim data, dosing schedule not given. The method, then: Anti-tumor activity of Compound I in combination with mouse anti-PD-L1 (clone 10F.9G2), and 5-flurouracil (5-FU) was evaluated in the MC38 syngeneic murine colon carcinoma model. For all xenograft studies, nine-week old female C57BL/6 mice (C57BL/6NCrl) were implanted with MC38 tumor cells and treatment was initiated when mean tumor volume was approximately 100 mm^3.
Briefly, Compound I (100 mg/kg) and 5-FU (75 mg/kg) were administered intraperitoneally (IP) once weekly for three doses. […] In the Induction (I) dosing schedule, mouse anti-PD-L1 (100 μg/animal, IP) was given twice weekly for two weeks starting on Day 1 and ending on Day 15. In the Maintenance (M) dosing schedule, mouse anti-PD-L1 (100 μg/animal, IP) was given twice weekly starting on Day 15 and continuing through the end of study. In the Induction+Maintenance (IM) dosing schedule, mouse anti-PD-L1 (100 μg/animal, IP) was given twice weekly starting on Day 1 and continuing through the end of study.
(§1) Single, two, and three drug combinations were tested and Compound I was administered minutes prior to chemotherapy treatment. Complete response (CR) and partial response (PR) were calculated using standard Charles River Laboratories (CRL; RTP, NC) criteria. Body weight (BW) and health were monitored, and tumor volume was measured twice weekly. The individual tumor volume endpoint was 1000 mm^3 or Day 100, whichever came first. The arms of the study included the following: • 1) vehicle • 2) 5-FU+anti-PD-L1 (clone 10F.9G2), IM dosing schedule • 3) Compound I+5-FU+anti-PD-L1 (clone 10F.9G2), IM dosing schedule • 4) 5-FU+anti-mouse PD-L1 (clone 10F.9G2), M dosing schedule • 5) Compound I+5-FU+anti-mouse PD-L1 (clone 10F.9G2), M dosing schedule • 6) 5-FU+anti-mouse PD-L1 (clone 10F.9G2), I dosing schedule • 7) Compound I+5-FU+anti-mouse PD-L1 (clone 10F.9G2), I dosing schedule

For assay [2], the system named is MC38 tumor cells. To be noted: dosing schedule not given, anti-PD-L1 combination study. As for the experimental part: Anti-tumor activity of Compound I in combination with PD-L1 (clone 10F.9G2) and oxaliplatin was evaluated in the MC38 syngeneic murine colon carcinoma model. For all xenograft studies, nine-week old female C57BL/6 mice (C57BL/6NCrl) were implanted with MC38 tumor cells and treatment was initiated when mean tumor volume was approximately 100 mm^3.
Briefly, Compound I (100 mg/kg) and oxaliplatin (10 mg/kg) were administered intraperitoneally (IP) once weekly for three doses and the checkpoint inhibitor administration was varied as depending on the dosing schedule. In the Induction (I) dosing schedule, mouse anti-PD-L1 (100 μg/animal, IP) was given twice weekly for two weeks starting on Day 1 and ending on Day 15. In the Maintenance (M) dosing schedule, mouse anti-PD-L1 (100 μg/animal, IP) was given twice weekly starting on Day 15 and continuing through the end of study. In the Induction+Maintenance (IM) dosing schedule, mouse anti-PD-L1 (100 μg/animal, IP) was given twice weekly starting on Day 1 and continuing through the end of study.
as §1, with “administered 30” for “administered”, “2) Compound I+anti-PD-L1” for “2) 5-FU+anti-PD-L1”, “Compound I+Oxaliplatin+anti-PD-L1” for “Compound I+5-FU+anti-PD-L1”, “4) Oxaliplatin+anti-mouse” for “4) 5-FU+anti-mouse”, “Compound I+oxaliplatin+anti-mouse” for “Compound I+5-FU+anti-mouse”, “6) oxaliplatin+anti-mouse” for “6) 5-FU+anti-mouse”

For assay [3], the system named is MC38 tumor cells. To be noted: dosing schedule not given, anti-PD-1 combination study. The method, then:
For all xenograft studies, nine-week old female C57BL/6 mice (C57BL/6NCrl) were implanted with MC38 tumor cells and treatment was initiated when mean tumor volume was approximately 100 mm^3. Compound I was administered in combination with oxaliplatin and […] according to the Induction and Maintenance (IM) dosing schedule, which is shown in FIG. 3.
Briefly, Compound I (100 mg/kg) and oxaliplatin (10 mg/kg) were administered intraperitoneally (IP) once weekly for three doses and mouse […] (5 mg/kg, IP) was given twice weekly starting on Day 1 and continuing through the end of study.
Single, two, and three drug combinations were tested and Compound I was administered 30 minutes prior to chemotherapy treatment. Complete response (CR) and partial response (PR) were calculated using standard Charles River Laboratories (CRL; RTP, NC) criteria. Body weight (BW) and health were monitored, and tumor volume was measured twice weekly. The individual tumor volume endpoint was 1000 mm^3 or Day 100, whichever came first.

Like-named read-outs stand apart in the source and are kept apart here.

Take `O=c1[nH]cc(F)c(=O)[nH]1` [Compound 5-FU, 5-Fluorouracil]: in the assay on MC38 tumor cells [1] (Day 29), the “Overall Survival @ D29%” value turned out to be 30%. In addition, in the assay on MC38 tumor cells [1] (MC38), the “Complete Response %” value was found to be 0%, the “Objective Response Rate %” value stood at 0% and the “Partial Response %” value is 0%. Further, the “Progressive Disease %” value with MC38 tumor cells [1] (percent of tumors that have doubled in size by Day 29) is 100%.
Regarding `O=C1[O][Pt]2([NH][C@@H]3CCCC[C@H]3[NH]2)[O]C1=O` [Oxaliplatin, oxaliplatin, reference compound], in the assay with MC38 tumor cells [2], the “Complete Response %” value is 22%, the “Objective Response Rate %” value is recorded as 22%, the “Overall Survival (OS)” value is on record as 36 and the “Partial Response %” value is 0%. Also, in the assay on MC38 tumor cells [3], the “Complete Response %” value is 10%, the “Objective Response Rate %” value was 10%, the “Overall Survival (OS)” value is 31 and the “Partial Response %” value is given as 0%.
